Test results reported in paper PMC9395488, “First-in-human study of IM156, a novel potent biguanide oxidative phosphorylation (OXPHOS) inhibitor, in patients with advanced solid tumors” (Investigational New Drugs, 2022).

Test system: patients with advanced solid tumors
Test: First-in-human phase 1 dose-escalation study: safety, DLTs, adverse events
Assay type: in vivo
From the text: This multicenter first-in-human dose-escalation phase 1 study (clinicaltrials.gov identifier: NCT03272256) was designed to determine the MTD or RP2D and to evaluate the safety and tolerability of IM156. Secondary endpoints included PK characteristics, efficacy assessment (objective response rate [ORR], disease control rate [DCR], duration of response [DoR] and progression-free survival [PFS]). Furthermore, exploratory objectives included identification and profiling of IM156 metabolites, evaluations of exploratory PD markers of IM156, and evaluations of any potential relationship between putative biomarkers and safety/efficacy parameters of IM156. The study was conducted in accordance with Good Clinical Practice, the International Council for Harmonisation, and guidelines governing clinical study conduct and the ethical principles originating from the Declaration of Helsinki. The study was approved by each Institutional Review Board and patients provided written informed consent. Patients were enrolled at three sites in South Korea.
The initial dose and schedule of IM156 was chosen based on animal toxicology studies. […] IM156 was administered in the fasted state, with no food for at least 2 h before and 1 h after dosing.
Three DLT-evaluable patients were enrolled at each dose level. If there were no DLTs or other prohibitive adverse events (AEs), the Safety Committee was allowed to recommend escalation to the next highest dose level. If 1 DLT occurred in the first 3 DLT-evaluable patients, enrollment in that cohort was expanded to an additional 3 DLT-evaluable patients; if ≥ 2 DLTs were reported in a cohort, that dose was considered above the MTD.
Safety was assessed through vital signs, weight, laboratory assessments, physical examinations, electrocardiogram, and reporting of AEs as graded by the National Cancer Institute’s Common Terminology Criteria for Adverse Events v4.03 (NCI-CTCAE).
DLTs were defined as the following AEs if they were attributed as related to IM156: asymptomatic grade 4 neutropenia lasting for ≥ 5 days; febrile neutropenia, regardless of grade; grade 4 thrombocytopenia or grade 3 thrombocytopenia with bleeding; any grade ≥ 3 non-hematologic AE (except grade 3 hypertension and grade 3 nausea, vomiting or diarrhea for which proper measures for prevention and treatment were not implemented, and alopecia); blood lactate levels > 5 mmol; grade ≥ 2 AE prohibiting dosing of IM156 for ≥ 21 continuous days except for alterations in serum calcium or phosphorus levels. The safety analysis includes all patients who received at least one dose of study drug.
The safety population was defined as all patients who received at least one dose of IM156. The PK population was not defined in the protocol but included all patients with sufficient PK data to perform adequate PK modeling. The efficacy population included all patients who underwent at least one tumor imaging assessment while receiving IM156. Safety was assessed using descriptive statistics (e.g., DLTs, AEs, laboratory tests, physical examination, 12-lead ECG). The incidence and number of events were reported for the DLTs observed in Cycle 1 per dose group. […] Adverse events and TRAEs were standardized with the System Organ Class and the Preferred Term using the Medical Dictionary for Regulatory Activities v23.0. In addition, TEAEs, serious adverse events (SAEs), TEAE severity, and TEAEs leading to withdrawal were presented by dose group. Efficacy data were to be presented by Waterfall and Swim Lane plots. Time to event endpoints (e.g., DoR, PFS) were determined using Kaplan–Meier estimations with the median value for each endpoint summarized.

## NC(=Nc1ccc(OC(F)(F)F)cc1)N=C(N)N1CCCC1 [IM156]
DL7 1200 mg orally daily (n=4)
  TEAE Purpura grade 2: 0
  TEAE Purpura grade 3: 0
  TEAE Purpura grade 4: 0
  TEAE Urinary retention grade 1: 0
  TEAE Urinary retention grade 2: 0
  TEAE Urinary retention grade 3: 0
  TEAE Urinary retention grade 4: 0
  TEAE Urinary tract disorder grade 1: 0
  TEAE Urinary tract disorder grade 2: 1
  TEAE Urinary tract disorder grade 3: 0
  TEAE Urinary tract disorder grade 4: 0
Total
  TEAE Adrenal insufficiency grade 1: 0
  TEAE Adrenal insufficiency grade 2: 1
  TEAE Adrenal insufficiency grade 3: 0
  TEAE Adrenal insufficiency grade 4: 0
  TEAE Anaemia grade 1: 0
  TEAE Anaemia grade 2: 3
  TEAE Anaemia grade 3: 2
  TEAE Anaemia grade 4: 0
  TEAE Appendicitis perforated grade 1: 0
  TEAE Appendicitis perforated grade 2: 0
  TEAE Appendicitis perforated grade 3: 1
  TEAE Appendicitis perforated grade 4: 0
  TEAE Back pain grade 1: 0
  TEAE Back pain grade 2: 2
  TEAE Back pain grade 3: 0
  TEAE Back pain grade 4: 0
  TEAE Cystitis grade 1: 0
  TEAE Cystitis grade 2: 1
  TEAE Cystitis grade 3: 0
  TEAE Cystitis grade 4: 0
  TEAE Dry skin grade 1: 0
  TEAE Dry skin grade 2: 1
  TEAE Dry skin grade 3: 0
  TEAE Dry skin grade 4: 0
  TEAE Flank pain grade 1: 0
  TEAE Flank pain grade 2: 1
  TEAE Flank pain grade 3: 0
  TEAE Flank pain grade 4: 0
  TEAE Hypertension grade 1: 0
  TEAE Hypertension grade 2: 1
  TEAE Hypertension grade 3: 0
  TEAE Hypertension grade 4: 0
  TEAE Hypotension grade 1: 0
  TEAE Hypotension grade 2: 1
  TEAE Hypotension grade 3: 0
  TEAE Hypotension grade 4: 0
  TEAE Insomnia grade 1: 2
  TEAE Insomnia grade 2: 1
  TEAE Insomnia grade 3: 0
  TEAE Insomnia grade 4: 0
  TEAE Pain in extremity grade 1: 1
  TEAE Pain in extremity grade 2: 1
  TEAE Pain in extremity grade 3: 0
  TEAE Pain in extremity grade 4: 0
  TEAE Pruritus grade 1: 1
  TEAE Pruritus grade 2: 0
  TEAE Pruritus grade 3: 0
  TEAE Pruritus grade 4: 0
  TEAE Psychiatric disorders grade 1: 2
  TEAE Psychiatric disorders grade 2: 1
  TEAE Psychiatric disorders grade 3: 0
  TEAE Psychiatric disorders grade 4: 0
  TEAE Purpura grade 1: 1
  TEAE Purpura grade 2: 0
  TEAE Purpura grade 3: 0
  TEAE Purpura grade 4: 0
  TEAE Urinary retention grade 1: 0
  TEAE Urinary retention grade 2: 1
  TEAE Urinary retention grade 3: 0
  TEAE Urinary retention grade 4: 0
  TEAE Urinary tract disorder grade 1: 0
  TEAE Urinary tract disorder grade 2: 1
  TEAE Urinary tract disorder grade 3: 0
  TEAE Urinary tract disorder grade 4: 0
Total, N = 22
  TRAE Abdominal Pain, > G3 (patients): 0
  TRAE Abdominal Pain, All grades (patients): 2
  TRAE Blood Lactic Acid increased, > G3 (patients): 0
  TRAE Blood Lactic Acid increased, All grades (patients): 2
  TRAE Constipation, > G3 (patients): 0
  TRAE Constipation, All grades (patients): 2
  TRAE Decreased appetite, > G3 (patients): 0
  TRAE Diarrhoea, > G3 (patients): 0
  TRAE Diarrhoea, All grades (patients): 10
  TRAE Fatigue, > G3 (patients): 0
  TRAE Fatigue, All grades (patients): 4
  TRAE Insomnia, > G3 (patients): 0
  TRAE Insomnia, All grades (patients): 2
  TRAE Nausea, > G3 (patients): 3
  TRAE Nausea, All grades (patients): 15
  TRAE Vomiting, > G3 (patients): 0
  TRAE Vomiting, All grades (patients): 9
Total, all dose levels
  TEAE Abdominal discomfort, grade 1: 1
  TEAE Abdominal distension, grade 2: 1
  TEAE Abdominal pain upper, grade 2: 1
  TEAE Abdominal pain, grade 1: 2
  TEAE Abdominal pain, grade 2: 3
  TEAE Abdominal pain, grade 3: 1
  TEAE Akathisia, grade 2: 1
  TEAE Alanine aminotransferase increased, grade 1: 3
  TEAE Alanine aminotransferase increased, grade 3: 1
  TEAE Ascites, grade 1: 1
  TEAE Aspartate aminotransferase increased, grade 1: 2
  TEAE Aspartate aminotransferase increased, grade 2: 1
  TEAE Aspartate aminotransferase increased, grade 3: 1
  TEAE Asthenia, grade 1: 3
  TEAE Blood alkaline phosphatase increased, grade 2: 1
  TEAE Blood alkaline phosphatase increased, grade 3: 1
  TEAE Blood creatinine increased, grade 1: 3
  TEAE Blood lactic acid increased, grade 1: 2
  TEAE Chest pain, grade 1: 1
  TEAE Constipation, grade 1: 5
  TEAE Constipation, grade 2: 1
  TEAE Cough, grade 1: 3
  TEAE Decreased appetite, grade 1: 3
  TEAE Decreased appetite, grade 2: 1
  TEAE Diarrhoea, grade 1: 9
